Reference: patent US12697317B2 (priority 2019, dated 2026)

How the values were obtained:
[1] = Plasma exposure by baseline creatinine clearance group (FIG. 1; Studies 2, 3 and 5)
Experimental: Renal dysfunction is expected to elevate PAGN plasma concentrations. AE data from subjects with severe renal impairment were summarized. […] CLcr of 35 mL/min was chosen as a cut-off value in order to have relatively sufficient sample size for the group with relatively worse renal function.

[2] = Safety/tolerability of LOPA in healthy subjects (SAD/MAD), Study 1; settings: Study 1, healthy subjects, FIG. 2
Experimental: (§1) Pharmacokinetics Analysis
(§2) Adverse events (AEs) were assessed and coded using the Medical Dictionary for Regulatory Activities (MedDRA) preferred term and system organ class.
(§3) The evaluation of potential correlation between central nervous system (CNS) AEs and PAA exposure was conducted on data from Studies 1-3. The first reported drug-related CNS AE was included in the analysis. For each such CNS AE, two PAA concentrations were identified based on the time of onset of the AE and the time of PAA assessment: (1) the closest PAA concentration before the onset of the AE; and (2) the closest PAA concentrations after the onset of the […] All time points were calculated relative to the start of study drug infusion.

[3] = PK of PAA, ORN and PAGN in severe renal impairment vs normal renal function, Study 5
Experimental: Seven subjects with severe renal impairment and seven age, sex, and weight-matched subjects with normal renal function participated, wherein 5 males and 2 females participated in both groups.
(§5) Plasma concentrations of ORN, PAA, PAGN, and urine concentrations of PAGN were measured using a validated LC-MS/MS method.

[4] = clinical; settings: human, in vivo, iv
Experimental: as §5
Hepatic dysfunction on PAA PK was investigated using the PK data from patients in Studies 2 and 3. Renal dysfunction on PAA and PAGN plasma exposure was explored using the PK data from Studies 2, 3 and 5.

[5] = Population PK modeling of PAA, Studies 2, 3 and 5; type: in vivo, human
Experimental: (§4) Both non-compartmental analysis and population PK analysis were conducted to identify factors attributing to the PK of PAA, ORN, and PAGN. Ethnicity factor on the PK of PAA was explored using the PK data from Caucasian, Chinese, and Japanese healthy subjects in Studies 1 and 4.
Hepatic impairment also altered PAA plasma exposure. To identify the factors contributing to PAA plasma exposure, population PK modeling was conducted. A one-compartment model with Michaelis-Menten kinetics describing the formation of PAGN from PAA adequately quantified PAA plasma concentration profiles in healthy subjects and patients. Body weight was identified as a significant covariate for the PK of PAA in both healthy subjects and patients. Other factors such as ethnicity and hepatic/renal impairment on the PK of PAA are described below.

[6] = Steady state plasma PAA in hospitalized patients with cirrhosis and HE, Study 3; type: in vivo, human; settings: for median concentration of PAA at steady state: Study 3, Child-Pugh C patients
Experimental: as §1, §4

[7] = Safety/tolerability of LOPA in patients with stable cirrhosis, Study 2; settings: Study 2, FIG. 3
Experimental: as §1, §2, §3

[8] = Safety of LOPA in hospitalized patients with cirrhosis, hyperammonemia and acute HE, Study 3; settings: hospitalized patients with hyperammonemia and an acute episode of HE
Experimental: as §1, §2, §3

[9] = normal renal function, LOPA 15 g/24 hour IV
[10] = severely impaired renal function, LOPA 7 g/24 hours IV

SMILES: O=C(O)Cc1ccccc1 [PAA, phenylacetic acid]
- PAA plasma concentrations, CLcr ≤35 mL/min group vs >35 mL/min group [1]: no difference
- severity of CNS AEs vs PAA plasma concentrations [2]: appeared to be correlated
- mean dose normalized PAA AUCt [3, 9]: 54.9 µg·h/mL/g
- mean dose normalized PAA Cmax [3, 9]: 2.61 µg/mL/g
- mean dose normalized PAA AUCt [3, 10]: 45.4 µg·h/mL/g
- mean dose normalized PAA Cmax [3, 10]: 1.58 µg/mL/g
- half-life ([4]; 3 g/4 h): 39 min
- half-life ([4]; 30 g/4 h): 359 min
- half-life ([4]; 30 g/24 h): 75 min
- half-life ([4]; 60 g/24 h): 245 min
- impact of renal dysfunction on the exposure of PAA ([5]; mild, moderate or severe renal dysfunction, population PK analysis): insignificant impact
- PAA exposure at steady state, Child-Pugh C higher than Child-Pugh B ([5]; population PK model, same body weight): 36%
- PAA PK: increase in Cmax and AUC with dose (IV LOPA from 10 g/4 h or 20 g/24 h up, healthy subjects and subjects with stable cirrhosis): greater than dose-proportional increase
- Recovered PAA as unchanged compound in urine (after IV LOPA): < 1 % of the administered dose of PAA
- median concentration of PAA at steady state ([6]; 10 g/24 hr (n=23)): 118 µg/mL
- median concentration of PAA at steady state ([6]; 15 g/24 hr (n=38)): 120 µg/mL
- plasma PAA concentration at steady state, higher in Child-Pugh C than Child-Pugh B patients ([6]; Study 3, LOPA 15 g/24 h, during infusion period): approximately 35%
- PAA concentrations vs CNS AE occurrence [7]: No correlation
- PAA exposure related neurotoxicity [8]: No PAA exposure related neurotoxicity
